Test results published in US20110021565A1, “PIPERIDINE DERIVATIVES AS NK3 ANTAGONISTS” (priority 2007, published 2011).
Like-named read-outs stand apart in the source and are kept apart here.

Target: T1, recombinant human NK3 receptor (Homo sapiens, UniProt P29371)
T1 construct: expressed in transfected cells; host or cells: HEK293 cells, transient expression; membrane preparation
T1 sequence (P29371 1-465): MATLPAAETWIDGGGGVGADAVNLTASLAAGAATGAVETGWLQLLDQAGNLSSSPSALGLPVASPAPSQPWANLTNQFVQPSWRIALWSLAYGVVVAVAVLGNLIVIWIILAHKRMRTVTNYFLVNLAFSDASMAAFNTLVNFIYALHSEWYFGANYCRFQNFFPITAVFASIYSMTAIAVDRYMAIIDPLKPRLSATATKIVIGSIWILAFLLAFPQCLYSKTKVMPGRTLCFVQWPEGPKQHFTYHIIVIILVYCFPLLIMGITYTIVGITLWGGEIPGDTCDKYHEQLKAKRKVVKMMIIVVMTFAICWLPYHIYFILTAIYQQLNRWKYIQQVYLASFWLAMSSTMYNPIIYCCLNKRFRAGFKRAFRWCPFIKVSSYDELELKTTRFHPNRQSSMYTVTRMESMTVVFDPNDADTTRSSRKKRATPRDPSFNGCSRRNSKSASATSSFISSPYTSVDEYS
Assay: [3H]SR142801 competition binding assay
Method: [^3H]SR142801 Competition Binding Assay
hNK3 receptor binding experiment were performed using [^3H]SR142801 (Catalog No. TRK1035, specific activity: 74.0 Ci/mmol, Amersham, GE Healthcare UK limited, Buckinghamshire, UK) and membrane isolated from HEK293 cells transiently expressing recombinant human NK3 receptor. After thawing, the membrane homogenates were centrifuged at 48,000×g for 10 min at 4° C., the pellets were resuspended in the 50 mM Tris-HCl, 4 mM MnCl2, 1 μM phosphoramidon, 0.1% BSA binding buffer at pH 7.4 to a final assay concentration of 5 μg protein/well. For inhibition experiments, membranes were incubated with [^3H]SR142801 at a concentration equal to KD value of radioligand and 10 concentrations of the inhibitory compound (0.0003-10 μM) (in a total reaction volume of 500 μl) for 75 min at room temperature (RT). At the end of the incubation, membranes were filtered onto unitfilter (96-well white microplate with bonded GF/C filter preincubated 1 h in 0.3% PEI+0.3% BSA, Packard BioScience, Meriden, Conn.) with a Filtermate 196 harvester (Packard BioScience) and washed 4 times with ice-cold 50 mM Tris-HCl, pH 7.4 buffer. Nonspecific binding was measured in the presence of 10 μM SB222200 for both radioligands. The radioactivity on the filter was counted (5 min) on a Packard Top-count microplate scintillation counter with quenching correction after addition of 45 μl of microscint 40 (Canberra Packard S. A., Zurich, Switzerland) and shaking for 1 h. Inhibition curves were fitted according to the Hill equation: y=100/(1+(x/IC50)^nH), where nH=slope factor using Excel-fit 4 software ([…]). IC50 values were derived from the inhibition curve and the affinity constant (IQ values were calculated using the Cheng-Prussoff equation Ki=IC50/(1+[L]/KD) where [L] is the concentration of radioligand and KD is its dissociation constant at the receptor, derived from the saturation isotherm. All experiments were performed in duplicate and the mean±standard error (SEM) of the individual Ki values was calculated.

[1] = [3H]SR142801, membranes of HEK293 cells transiently expressing recombinant human NK3 receptor, read-out: hNK3 Ki
[2] = representative compounds, [3H]SR142801, HEK293 membranes, human NK3 receptor, read-out: Ki NK3 h

Structure (SMILES)	Ki [1] [nM]	Ki [2] [nM]
CN(C1CCN(CCC(C)(C(=O)N[C@@H](CO)c2ccc(Cl)c(Cl)c2)c2ccc(Cl)c(Cl)c2)CC1)S(C)(=O)=O (single isomer, unassigned; diastereoisomer 1) [Example 49, 2-(3,4-Dichloro-phenyl)-N-[1-(3,4-dichloro-phenyl)-2-hydroxy-ethyl]-4-[4-(methanesulfonyl-methyl-amino)-piperidin-1-yl]-2-methyl-butyramide; diastereoisomer 1]	5.5	5.5
CCN(C1CCN(CCC(C)(C(=O)N[C@@H](CO)c2ccc(Cl)c(Cl)c2)c2ccc(Cl)c(Cl)c2)CC1)S(C)(=O)=O (single isomer, unassigned; diastereoisomer 1) [Example 79, 2-(3,4-Dichloro-phenyl)-N-[1-(3,4-dichloro-phenyl)-2-hydroxy-ethyl]-4-[4-(ethyl-methanesulfonyl-amino)-piperidin-1-yl]-2-methyl-butyramide; diastereoisomer 1]	1.5	1.5
CC(CCN1CCC(N2CCCC2=O)CC1)(C(=O)N[C@@H](CO)c1ccc(Cl)c(Cl)c1)c1ccc(Cl)c(Cl)c1 (single isomer, unassigned; diastereoisomer 1) [Example 94, 2-(3,4-Dichloro-phenyl)-N-[-1-(3,4-dichloro-phenyl)-2-hydroxy-ethyl]-2-methyl-4-[4-(2-oxo-pyrrolidin-1-yl)-piperidin-1-yl]-butyramide; diastereoisomer 1]	3	3
CC(=O)N(C)C1CCN(CCC(C)(C(=O)N[C@@H](CO)c2ccc(Cl)c(Cl)c2)c2ccc(Cl)c(Cl)c2)CC1 (single isomer, unassigned; diastereoisomer 1) [Example 109, 4-[4-(Acetyl-methyl-amino)-piperidin-1-yl]-2-(3,4-dichloro-phenyl)-N-[1-(3,4-dichloro-phenyl)-2-hydroxy-ethyl]-2-methyl-butyramide; diastereoisomer 1]	5.6	5.6
CC(=O)NC1CCN(CCC(C)(C(=O)N[C@@H](CO)c2ccc(Cl)c(Cl)c2)c2ccc(Cl)c(Cl)c2)CC1 (single isomer, unassigned; diastereoisomer 1) [Example 158]	34.6	
CN(C1CCN(CCC(C)(C(=O)N[C@H](CO)c2ccc(Cl)c(Cl)c2)c2ccc(Cl)c(Cl)c2)CC1)S(C)(=O)=O (single isomer, unassigned; diastereoisomer 2) [Example 50, 2-(3,4-Dichloro-phenyl)-N-[1-(3,4-dichloro-phenyl)-2-hydroxy-ethyl]-4-[4-(methanesulfonyl-methyl-amino)-piperidin-1-yl]-2-methyl-butyramide; diastereoisomer 2]	52.1	
CCN(C1CCN(CCC(C)(C(=O)N[C@H](CO)c2ccc(Cl)c(Cl)c2)c2ccc(Cl)c(Cl)c2)CC1)S(C)(=O)=O (single isomer, unassigned; diastereoisomer 2) [Example 80, 2-(3,4-Dichloro-phenyl)-N-[1-(3,4-dichloro-phenyl)-2-hydroxy-ethyl]-4-[4-(ethyl-methanesulfonyl-amino)-piperidin-1-yl]-2-methyl-butyramide; diastereoisomer 2]	13.3	
CC(CCN1CCC(N2CCCC2=O)CC1)(C(=O)N[C@H](CO)c1ccc(Cl)c(Cl)c1)c1ccc(Cl)c(Cl)c1 (single isomer, unassigned; diastereoisomer 2) [Example 98, 2-(3,4-Dichloro-phenyl)-N-[1-(3,4-dichloro-phenyl)-2-hydroxy-ethyl]-2-methyl-4-[4-(2-oxo-pyrrolidin-1-yl)-piperidin-1-yl]-butyramide; diastereoisomer 2]	49.9	

The next lines start with the values.

Ki [1] [nM]	Ki [2] [nM]	Structure (SMILES)
1.7	1.7	COCCN(C(C)=O)C1CCN(CCC(C)(C(=O)N[C@@H](CO)c2ccc(F)cc2)c2ccc(Cl)c(Cl)c2)CC1 (single isomer, unassigned) [Example 150, 4-{4-[Acetyl-(2-methoxy-ethyl)-amino]-piperidin-1-yl}-2-(3,4-dichloro-phenyl)-N-[(R)-1-(4-fluoro-phenyl)-2-hydroxy-ethyl]-2-(R or S) methyl-butyramide]
21.1		COCCN(C(C)=O)C1CCN(CCC(C)(C(=O)N[C@@H](CO)c2ccc(F)cc2)c2ccc(Cl)c(Cl)c2)CC1 (single isomer, unassigned) [Example 151, 4-{4-[Acetyl-(2-methoxy-ethyl)-amino]-piperidin-1-yl}-2-(3,4-dichloro-phenyl)-N-[(R)-1-(4-fluoro-phenyl)-2-hydroxy-ethyl]-2-(S or R) methyl-butyramide]
29.3		CC(=O)N(C)C1CCN(CCC(C)(C(=O)NC(CO)c2ccc(F)cc2)c2ccc(Cl)c(Cl)c2)CC1 (single isomer, unassigned; diastereoisomer 1) [Example 138, 4-[4-(Acetyl-methyl-amino)-piperidin-1-yl]-2-(3,4-dichloro-phenyl)-N-[1-(4-fluoro-phenyl)-2-hydroxy-ethyl]-2-methyl-butyramide (diastereoisomer 1)]
33.3		CC(=O)N(C1CC1)C1CCN(CCC(C)(C(=O)N[C@@H](CO)c2ccc(F)cc2)c2ccc(Cl)c(Cl)c2)CC1 (single isomer, unassigned; diastereoisomer 1) [Example 140, 4-[4-(Acetyl-cyclopropyl-amino)-piperidin-1-yl]-2-(3,4-dichloro-phenyl)-N-[1-(4-fluoro-phenyl)-2-hydroxy-ethyl]-2-methyl-butyramide (diastereoisomer 1)]
10.9		CC(=O)N(C1CC1)C1CCN(CCC(C)(C(=O)N[C@@H](CO)c2ccc(Cl)cc2)c2ccc(Cl)c(Cl)c2)CC1 (single isomer, unassigned; diastereoisomer 1) [Example 142, 4-[4-(Acetyl-cyclopropyl-amino)-piperidin-1-yl]-N-[1-(4-chloro-phenyl)-2-hydroxy-ethyl]-2-(3,4-dichloro-phenyl)-2-methyl-butyramide (diastereoisomer 1)]
10.1		CC(=O)N(C1CC1)C1CCN(CCC(C)(C(=O)N[C@@H](CO)c2ccc(Cl)c(Cl)c2)c2ccc(Cl)c(Cl)c2)CC1 (single isomer, unassigned; diastereoisomer 1) [Example 144, 4-[4-(Acetyl-cyclopropyl-amino)-piperidin-1-yl]-2-(3,4-dichloro-phenyl)-N-[1-(3,4-dichloro-phenyl)-2-hydroxy-ethyl]-2-methyl-butyramide (diastereoisomer 1)]
0.7	0.7	COCCN(C(C)=O)C1CCN(CCC(C)(C(=O)N[C@@H](CO)c2ccc(F)cc2)c2ccc(Cl)c(Cl)c2)CC1 (single isomer, unassigned; diastereoisomer 1) [Example 146, 4-{4-[Acetyl-(2-methoxy-ethyl)-amino]-piperidin-1-yl}-2-(3,4-dichloro-phenyl)-N-[1-(4-fluoro-phenyl)-2-hydroxy-ethyl]-2-methyl-butyramide (diastereoisomer 1)]
170		CC(=O)NC1CCN(CCC(C)(C(=O)N[C@@H](CO)c2ccc(F)cc2)c2ccc(Cl)c(Cl)c2)CC1 (single isomer, unassigned; diastereoisomer 1) [Example 154, 4-(4-Acetylamino-piperidin-1-yl)-2-(3,4-dichloro-phenyl)-N-[1-(4-fluoro-phenyl)-2-hydroxy-ethyl]-2-methyl-butyramide (diastereoisomer 1)]
50.5		CC(=O)NC1CCN(CCC(C)(C(=O)N[C@@H](CO)c2ccc(Cl)cc2)c2ccc(Cl)c(Cl)c2)CC1 (single isomer, unassigned; diastereoisomer 1) [Example 156, 4-(4-Acetylamino-piperidin-1-yl)-N-[1-(4-chloro-phenyl)-2-hydroxy-ethyl]-2-(3,4-dichloro-phenyl)-2-methyl-butyramide (diastereoisomer 1)]
